Columns and labels:
[1] = test system: mouse olfactory receptor Olfr15; test: Expression rate of mouse olfactory receptor Olfr15 on the cell membrane of transfected HEK293T cells (immunofluorescence); format: cell-based
HEK293T cells = test: Cell viability rate of transfected HEK293T cells at the time of immunofluorescence; format: cell-based
Protocol: The liquid culture medium containing HEK293T cells was added into a Petri dish. The HEK293T cells adhered spontaneously to the inner wall of the Petri dish.
The plasmid (RTP1S), the plasmid (Rho-myc-Olfr15), and a plasmid (purchased from Evrogen, trade name: pMkate2) coding for a membrane marker were added to the Petri dish, and the HEK293T cells were transfected with these three plasmids by a lipofection method. The liquid culture medium was maintained under an air atmosphere containing 5% CO2 under a temperature of 37 degrees Celsius. In this way, as shown in the uppermost part of FIG. 4, the vessel containing the transformed HEK293 cells and the liquid culture medium was prepared.
Twenty four hours after the transfection, a liquid culture medium containing chlorpromazine was added into the vessel. […]
Subsequently, the liquid culture medium was removed. Then, the liquid culture medium not containing chlorpromazine (see FIG. 2) was added to the vessel. Thus, the liquid culture medium was exchanged.
Four hours after the exchange of the liquid culture medium, the distribution of the mouse olfactory receptor Olfr15 on the cell membrane was evaluated in accordance with the immunofluorescence technique disclosed in Non Patent Literature 2. For example, the expression rate on the cell membrane and the cell viability rate were calculated in accordance with the following formulas. (Expression rate on the cell membrane)=(fluorescence intensity on the cell membrane)/(fluorescence intensity of one entire cell) (Cell viability rate)=(the number of the living cells when the immunofluorescence technique was performed)/(the number of all the cells when the immunofluorescence technique was performed)
For example, the expression rate and the cell viability rate of not less than ten cells were calculated. Then, each of the average value of these rates was calculated. “Expression rate on the cell membrane” and “Cell viability rate” described in Table 3 are the average rates thereof.

[2] = chlorpromazine 5 μg/ml, immersion time 0.5 hour
[3] = chlorpromazine 5 μg/ml, immersion time 1 hour
[4] = chlorpromazine 5 μg/ml, immersion time 2 hour
[5] = chlorpromazine 5 μg/ml, immersion time 4 hour
[6] = chlorpromazine 5 μg/ml, immersion time 9 hour
[7] = chlorpromazine 5 μg/ml, immersion time 20 hour
[8] = chlorpromazine 10 μg/ml, immersion time 0.5 hour
[9] = chlorpromazine 10 μg/ml, immersion time 1 hour
[10] = chlorpromazine 10 μg/ml, immersion time 2 hour
[11] = chlorpromazine 10 μg/ml, immersion time 4 hour
[12] = chlorpromazine 10 μg/ml, immersion time 9 hour
[13] = chlorpromazine 10 μg/ml, immersion time 20 hour
[14] = chlorpromazine 25 μg/ml, immersion time 0.5 hour
[15] = chlorpromazine 25 μg/ml, immersion time 1 hour
[16] = chlorpromazine 25 μg/ml, immersion time 2 hour

CN(C)CCCN1c2ccccc2Sc2ccc(Cl)cc21 [chlorpromazine]
Expression rate on the cell membrane (%) ([1]; Comparative Example 2: as Example 1 (chlorpromazine 25 μg/ml, 20 hour) but plasmid (RTP1S) not used): 9.7% | Expression rate on the cell membrane (%) [1, 2]: 11.8% | Expression rate on the cell membrane (%) [1, 3]: 8.1% | Expression rate on the cell membrane (%) [1, 4]: 12.3% | Expression rate on the cell membrane (%) [1, 5]: 8.5% | Expression rate on the cell membrane (%) [1, 6]: 11.5% | Expression rate on the cell membrane (%) [1, 7]: 14.1% | Expression rate on the cell membrane (%) [1, 8]: 9.6% | Expression rate on the cell membrane (%) [1, 9]: 9.9% | Expression rate on the cell membrane (%) [1, 10]: 19.7% | Expression rate on the cell membrane (%) [1, 11]: 16.7% | Expression rate on the cell membrane (%) [1, 12]: 17.4% | Expression rate on the cell membrane (%) [1, 13]: 19.2% | Expression rate on the cell membrane (%) [1, 14]: 15.1% | Expression rate on the cell membrane (%) [1, 15]: 29.5% | Expression rate on the cell membrane (%) [1, 16]: 24.0% | Expression rate on the cell membrane (%) ([1]; chlorpromazine 25 μg/ml, immersion time 20 hour, HEK293T with RTP1S and Rho-myc-Olfr15 plasmids, 4 h after medium exchange): 28.4% | expression rate of the olfactory receptor Olfr15 on the cell membrane (change when added) ([1]; statement on Table 3, versus medium without chlorpromazine): increases | Cell viability rate (%) (HEK293T cells; [2]): 81% | Cell viability rate (%) (HEK293T cells; [3]): 88% | Cell viability rate (%) (HEK293T cells; [4]): 89% | Cell viability rate (%) (HEK293T cells; [5]): 82% | Cell viability rate (%) (HEK293T cells; [6]): 79% | Cell viability rate (%) (HEK293T cells; [7]): 68% | Cell viability rate (%) (HEK293T cells; [8]): 89% | Cell viability rate (%) (HEK293T cells; [9]): 82% | Cell viability rate (%) (HEK293T cells; [10]): 84% | Cell viability rate (%) (HEK293T cells; [11]): 81% | Cell viability rate (%) (HEK293T cells; [12]): 41% | Cell viability rate (%) (HEK293T cells; [13]): 50% | Cell viability rate (%) (HEK293T cells; [14]): 89% | Cell viability rate (%) (HEK293T cells; [15]): 55% | Cell viability rate (%) (HEK293T cells; [16]): 41% | Cell viability rate (%) (HEK293T cells; chlorpromazine 25 μg/ml, immersion time 20 hour): 11%

OC[C@H]1O[C@@](CO)(O[C@H]2O[C@H](CO)[C@@H](O)[C@H](O)[C@H]2O)[C@@H](O)[C@@H]1O [sucrose]
Expression rate on the cell membrane (%) ([1]; Comparative Example 4: sucrose 250 mM instead of chlorpromazine, otherwise as Example 1): 12.5%

Reference: patent US8975078B2, “Method for expressing a mouse olfactory receptor Olfr15 on a cell membrane” (Panasonic Corporation, priority 2011, dated 2015)
